Test results as given in patent publication US20020193425A1, “Cancer chemopreventative compounds and compositions and methods of treating cancers” (priority 2001, published 2002).
Like-named read-outs stand apart in the source and are kept apart here.

How the values were obtained:
[1] = system: HL-60 (human promyelocytic) cells; assay: HL-60 cell differentiation of quassinoids, NBT reduction; assay type: cell-based
Description: (§1) Induction of differentiation was determined by the ability of treated cells to produce superoxide anions (nitroblue tetrazolium (NBT)-reduction), a functional marker of mature macrophages or granulocytes. Proliferation capacity is equivalent to cell growth and was measured by incorporation of [3H]thymidine into DNA over a period of 18 h, and cytotoxic activity was evaluated by the loss of membrane integrity as shown by trypan blue exclusion. […] Although members of the brusatol and glaucarubolone series were active, when comparing members of both series that varied only in the positioning of the epoxymethano bridge, great differences were noted, as shown with yadianzolide C (5) and glaucarubolone (24), and analogues 4 (brusatol series) and 32 (glaucarubolone series).
(§2) HL-60 (human promyelocytic) cells were tested using a 4-day incubation protocol. In brief, cells in log phase (approximately 10^6 cells/mL) were diluted to […] and preincubated overnight (18 h) in 24-well plates to allow cell-growth recovery. Then, samples dissolved in DMSO were added, keeping the final DMSO concentration at 0.1% (v/v). Control cultures were treated with the same concentration of DMSO. After 4 days of incubation, the cells were analyzed to determine the percentage of cells undergoing maturation as determined by NBT reduction. Concomitantly, the effect on viability and proliferation of HL-60 cells was determined. In each experiment, 1α, 25-dihydroxyvitamin D3 (EC50=0.01 μM) and brusatol (EC50=0.07 μM) were used as reference controls. EC50 and IC50 values were calculated using 5-7 test concentrations (in duplicate), and consistent results were obtained, indicating the data reported for the related quassinoids are reliable.
(1) Nitroblue Tetrazolium (NBT) Reduction. Evaluation of NBT reduction was used to assess the ability of sample-treated HL-60 cells to produce superoxide when challenged with 12-O-tetradecanoylphorbol 13-acetate (TPA). A 1:1 v/v) mixture of a cell suspension (10^6 cells) and TPA/NBT solution (2 mg/mL NBT and 1 μg/mL TPA in phosphate buffered solution) was incubated for 1 h at 37° C. Positive cells reduce NBT yielding intracellular black-blue formazan deposits, which were quantified by microscopic examination of >200 cells. Results were expressed as a percentage of positive cells.

[2] = system: human promyelocytic leukemia (HL-60) cells; conditions: cited from earlier work
[3] = system: HL-60 (human promyelocytic) cells; assay: HL-60 cell proliferation assay of quassinoids, [3H]thymidine incorporation; assay type: cell-based; conditions: for IC50: 4-day incubation, [3H]thymidine incorporation, read-out: inhibition of proliferation (IC50)
Description: as §1, §2
(3) Cell Proliferation Assay. […] Cells were then collected on glass fiber filters (90×120 mm; Wallac, Turku, Finland) using a TOMTEC Harvester 96®.

[4] = HL-60 cytotoxicity of quassinoids, trypan blue exclusion; assay type: cell-based, human; conditions: human, HL-60 cells; HL-60; 4-day incubation; trypan blue exclusion; read-out: cytotoxicity (IC50)
Description: as §1, §2
(§3) (2) Cytotoxicity. Since loss of membrane integrity is an early feature of necrotic cells and a late feature of apoptotic cells, trypan blue, a […] blue dye, was used to stain cells with compromised plasma membranes, while leaving intact cells unstained. Cells […] of trypan blue (0.2% w/v in PBS), incubated for at least 5 min at room temperature, and counted using a hematocytometer. Viability percentages were calculated with duplicate samples.

[5] = system: DMBA-induced preneoplastic lesion formation in mouse mammary organ culture; assay: Inhibition of DMBA-induced preneoplastic lesion formation in mouse mammary organ culture (MMOC); assay type: cell-based; conditions: for % inhibition of DMBA-induced preneoplastic lesion formation: quassinoid (2 μM), in comparison with a DMBA control
Description: The identification of potential inhibitors of DMBA-induced preneoplastic lesion formation in mammary organ culture has been described previously. Briefly, four-week old BALB/c female mice (Charles River) were pretreated for nine days with 1 μg estradiol and 1 mg progesterone. The thoracic pair of mammary glands was dissected on silk and incubated with growth-promoting hormones in the presence of test compounds (2 μM) for 10 days. DMBA ([…]) was included in the medium (containing […]) for 24 hours on the third day of culture to induce preneoplastic mammary lesions. Following 10 days of growth promoting phase, all hormones except insulin were withdrawn and the glands were allowed to regress to lobuloalveolar structures during a 14-day incubation period. Glands then were fixed in 10% buffered formalin and stained with alum carmine. Incidence of lesion formation (percentage of glands per group with mammary lesions) was recorded, and percent inhibition was calculated by comparison with the DMBA control group that was not treated with test sample. Active samples induce 60% inhibition, based on historical controls.

[6] = system: HL-60 (human promyelocytic) cells; assay: HL-60 cytotoxicity of quassinoids, trypan blue exclusion; assay type: cell-based; conditions: HL-60; 4-day incubation; trypan blue exclusion
Description: as §1, §2, §3

[7] = HL-60, 4-day incubation, NBT-reduction, read-out: induction of differentiation (EC50)
[8] = Homo sapiens, HL-60, 96 h, read-out: induction of differentiation (EC50, μM)

Compound	EC50 [1, 7] [µM]	IC50 [3] [nM]	IC50 [6] [nM]	other results
C=C1/C(=C\C=C2/CCC[C@]3(C)[C@@H]([C@H](C)CCCC(C)(C)O)CC[C@@H]23)C[C@@H](O)C[C@@H]1O [1α, 25-dihydroxyvitamin D3, reference compound]	0.01			
C[C@@]1(CO)[C@H](O)CC[C@@]2(C)[C@H]1CC[C@H]1C[C@@H]3C[C@@]12CC[C@]3(O)CO [aphidicolin, reference compound]				maturation of HL-60 cells ([1]; data not shown): incapable of inducing maturation
COc1cc([C@H]2Oc3c(OC)cc4ccc(=O)oc4c3O[C@@H]2CO)ccc1O [cleomiscosin A]				activity in the HL-60 test system [2]: inactive
CC[C@@](C)(OC(C)=O)C(=O)O[C@H]1C(=O)O[C@@H]2C[C@H]3C(C)=CC(=O)[C@@H](O)[C@]3(C)[C@H]3[C@@H](O)[C@H](O)[C@@]4(C)OC[C@]32[C@@H]14 [compound 3, quassimarin]				EC50 [1, 8]: 0.09 ± 0.001 µM; IC50 ([3]; Homo sapiens): 60 ± 5 nM; selectivity index ([3]; ratio of cytotoxic IC50 over antiproliferative IC50): 2.2 ± 0.5; IC50 at 4 days [4]: 130 ± 8 nM
CC[C@@H](C)C(=O)O[C@H]1C(=O)O[C@@H]2C[C@H]3C(C)=CC(=O)[C@@H](O)[C@]3(C)[C@H]3[C@@H](O)[C@H](O)[C@@]4(C)OC[C@]32[C@@H]14 [compound 4, simalikalactone D]				EC50 [1, 8]: > 0.2 µM; IC50 ([3]; Homo sapiens): > 200 nM; IC50 at 4 days [4]: 200 ± 40 nM
CC[C@@](O)(CC(=O)O[C@@H]1C(=O)O[C@@H]2C[C@@H]3C(C)=CC(=O)[C@H](O)[C@]3(C)[C@H]3[C@]4(O)OC[C@]32[C@@H]1[C@@H](C)[C@H]4O)C(C)C [compound 10, Peninsularinone]	0.019 ± 0.0004	9 ± 1	13 ± 1	activity in the MMOC model ([5]; at concentrations as high as 2 mM): inactive; % inhibition of DMBA-induced preneoplastic lesion formation [5]: 44%
CC1=CC(=O)[C@@H](O)[C@]2(C)[C@H]3[C@]4(O)OC[C@]35[C@H]([C@@H](C)[C@H]4O)[C@@H](O)C(=O)O[C@@H]5C[C@@H]12 [compound 24, glaucarubolone]	~1.3	400 ± 30	1300 ± 200	
CC[C@](C)(O)C(=O)O[C@H]1C(=O)O[C@@H]2C[C@H]3C(C)=CC(=O)[C@@H](O)[C@]3(C)[C@H]3[C@@]4(O)OC[C@]32[C@@H]1[C@@H](C)[C@H]4O [compound 25, glaucarubinone]	1.8 ± 0.09	500 ± 90	1000 ± 100	
CC1=CC(=O)[C@@H](O)[C@]2(C)[C@H]3[C@@]4(O)OC[C@@]35[C@@H](C[C@@H]12)OC(=O)C[C@H]5[C@@H](C)[C@H]4O [compound 26, chaparrinone]	~2.4	1200 ± 200	5000 ± 300	% inhibition of DMBA-induced preneoplastic lesion formation [5]: 25%
bruceoside B				activity in the HL-60 test system [2]: inactive
samaderin B [compound 48]	1 ± 0.02	400 ± 50	> 2000	% inhibition of DMBA-induced preneoplastic lesion formation [5]: 0%
yadanziolide C [compound 5]	10 ± 1.5	1500 ± 80	> 10000	
